Results published in US10975394B2, “Recombinant microorganisms for enhanced production of mevalonate, isoprene, and isoprenoids” (Danisco US Inc., priority 2011, dated 2021).
Read-outs that look alike come from different tables or passages of the source.

Key:
[1] = target: M. burtonii mevalonate kinase (Methanococcoides burtonii, UniProt Q12TI0); assay: Mevalonate kinase coupled spectrophotometric kinetic and inhibition assay; assay type: biochemical; conditions: for kcat: 40 nM purified enzyme, varying mevalonate and ATP
[2] = target: M. mazei mevalonate kinase (Methanosarcina mazei, UniProt Q8PW39); assay: as above; assay type: biochemical; conditions: for Vmax / α / kcat / Ka/b: random bireactant system model; for kcat: 80 nM purified enzyme, varying mevalonate and ATP; for Ka/b: Ka(Mev), Kb(ATP)
[3] = test system: engineered E. coli strains; assay type: cell-based
[4] = inhibitor added at various concentrations to the reaction mix, read-out: Ki

Sequence of M. burtonii mevalonate kinase (Q12TI0 entry or part of it): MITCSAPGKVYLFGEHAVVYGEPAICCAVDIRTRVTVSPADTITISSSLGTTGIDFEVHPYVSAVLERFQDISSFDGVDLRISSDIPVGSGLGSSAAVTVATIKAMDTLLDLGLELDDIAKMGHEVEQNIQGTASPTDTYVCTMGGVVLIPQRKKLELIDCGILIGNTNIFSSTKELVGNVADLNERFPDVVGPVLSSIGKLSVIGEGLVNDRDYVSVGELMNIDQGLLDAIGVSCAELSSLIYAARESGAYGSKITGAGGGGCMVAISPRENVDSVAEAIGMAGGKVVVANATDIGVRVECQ
Sequence of M. mazei mevalonate kinase (Q8PW39 entry or part of it): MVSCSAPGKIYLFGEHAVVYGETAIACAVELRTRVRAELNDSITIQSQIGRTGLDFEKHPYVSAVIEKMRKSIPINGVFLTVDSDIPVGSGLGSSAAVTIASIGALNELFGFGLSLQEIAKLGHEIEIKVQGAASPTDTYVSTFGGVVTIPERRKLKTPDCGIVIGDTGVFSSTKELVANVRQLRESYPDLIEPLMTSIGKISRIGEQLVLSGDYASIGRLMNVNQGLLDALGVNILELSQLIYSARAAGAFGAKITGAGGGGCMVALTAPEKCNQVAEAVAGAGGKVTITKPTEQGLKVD

Nc1ncnc2c1ncn2[C@@H]1O[C@H](COP(=O)(O)OP(=O)(O)OP(=O)(O)O)[C@@H](O)[C@H]1O [ATP, Adenosine triphosphate]
Ka/b [1]: 212 µM
Vmax ([1]; random bireactant system model): 2.97 µM/s
α ([1]; random bireactant system model): 3.74
kcat ([1]; random bireactant system model): 74.3 s⁻¹
Vmax [2]: 2.14 µM/s
α [2]: 1.62
kcat [2]: 26.8 s⁻¹
Ka/b [2]: 460 µM

CC(O)(CCO)CC(=O)O (stereo not shown) [Mevalonate, mevalonate]
Vmax ([1]; random bireactant system model): 1.78 µM/s
α ([1]; random bireactant system model): 0.52
kcat ([1]; random bireactant system model): 44.4 s⁻¹
Ka/b ([1]; random bireactant system model, Ka(Mev), Kb(ATP)): 391 µM
growth inhibition by mevalonate ([3]; strain MCM2131, mevalonate between 0 and 16 mM): not inhibited
growth inhibition by mevalonate ([3]; strains MCM2125, MCM2127 and MCM2130, mevalonate 0-16 mM): not inhibited
Vmax [2]: 1.46 µM/s
α [2]: 0.23
kcat [2]: 18.3 s⁻¹
Ka/b [2]: 397 µM

CC(C)=CCOP(=O)(O)OP(=O)(O)O [DMAPP, dimethylallyl diphosphate, reference compound]
Ki [1]: > 5 mM
Ki [2]: > 5 mM

CC(O)(CCOP(=O)(O)O)CC(=O)O (stereo not shown) [MVP, reference compound]
Ki [1, 4]: > 3 mM
Ki [2, 4]: > 3 mM

C[C@@](O)(CCOP(=O)(O)OP(=O)(O)O)CC(=O)O [MVPP, reference compound]
Ki [1, 4]: > 5 mM
Ki [2, 4]: > 1 mM

C=C(C)CCO[P@@](=O)(O)OP(=O)(O)O [IPP, isopentenyl pyrophosphate, reference compound]
Ki [1]: > 5 mM
Ki [2]: > 5 mM

CC(C)=CCC/C(C)=C/COP(=O)(O)OP(=O)(O)O [GPP, geranyl pyrophosphate, reference compound]
Ki [1, 4]: > 5 mM
Ki [2, 4]: > 5 mM
